A word on the EC50: it is the concentration that produces a half-maximal response. A low value points to a more potent agent. Usually Ki stands for a measure of affinity in units of concentration, obtained from inhibition or displacement. A higher Ki goes with a looser hold on the target.

Data on 5 molecules can be found in patent US20250066388A1, “1,3,4,7-TETRAHYDRO-2H-PYRROLO[3',2':5,6]PYRIDO[2,3-B][1,4]OXAZEPINE BCL-2 INHIBITORS” (AbbVie Inc., priority 2022, published 2025).

One experiment concerns Molt-4 cells. Nature of the experiment: Cell viability counter screen (CellTiter-Glo) in Molt-4 cells. The experiment is classed as cell-based. The conditions noted are these: 24 hours, 10% Human Serum. On the procedure:
(§1) The acute lymphoblastic leukemia (ALL) human cell line RS4;11 (ATCC, Manassas VA) was used as the primary human cell line to assess the cellular activity of compound of the present Examples in vitro and their efficacy in vivo. […] The acute lymphoblastic leukemia cell line Molt-4, which is derived from immature T-lymphoid cells (T-ALL), was used as a counter screen assay.
(§2) 3000 Cells (0.1×10^6/mL) were seeded in each well of 384-well plate and were treated for 24 hours in a humidified chamber with 5% CO2. Cell viability was determined by CellTiter-Glo as described by the manufacturer's instructions (Promega Corporation, Madison, WI, USA).

The next experiment concerns RS4;11 cells. Nature of the experiment: Cell viability assay (CellTiter-Glo) in RS4;11 cells. The experiment is classed as cell-based. The conditions noted are these: 24 hours, 10% Human Serum. As to the method: as §1, §2
The next experiment deals with Bcl-2 protein (Homo sapiens (Human), UniProt P10415). Nature of the experiment: TR-FRET binding assay, Bcl-2. The conditions noted are these: F-Bak peptide probe, GST-Bcl-2. As to the method:
(§3) Determination of the utility of compounds having Formula (I) or Formula (II) as binders to and inhibitors of anti-apoptotic Bcl-2 proteins was performed using the Time Resolved-Fluorescence Resonance Energy Transfer (TR-FRET) Assay. Tb-anti-GST antibody was purchased from Invitrogen (Catalog No. PV4216).
A Bcl-2 human encoding sequence was cloned into a pET41A vector (Novagen). The protein was expressed with E. coli. BL21(DE3)-T1R strain in OETB autoinduction medium at 30° C. for 25 hours. The cell pellets were resuspended in lysis buffer (50 mM Tris, 140 mM NaCl, 1 mM DTT, 10% Glycerol, 2 mM MgCl2, pH 7.3) and lysed with Microfluidizer. The Bcl-2 protein in clarified cell-lysate was purified with affinity chromatography (GST and Ni-NTA). The eluate was loaded onto a Superdex 75 column and further purified with a Q Sepharose column. The protein was purified on a phenyl hydrophobic interaction column and dialyzed in the storage buffer (50 mM Tris, 50 mM NaCl, 2 mM DTT, pH 7.5) and stored at −80° C.
(§4) […] of a protein (Bcl-2 or Bcl-xL)/probe/antibody mixture pre-equilibrated for one hour in assay buffer was added to each well at final concentrations listed in Table 6 below.
(§5) The samples were then mixed on a shaker for 1 minute and equilibrated for an additional 3 hours at room temperature. For each assay plate, a probe/antibody and protein/antibody/probe mixture were included as a negative and a positive control, respectively. Fluorescence was measured on the Envision (Perkin Elmer) using a 340/35 nm excitation filter and 520/525 (F-Bak) and 495/510 nm (Tb-labeled anti-GST antibody) emission filters. Inhibition constants (Ki) were determined using Wang's equation (Wang FEBS Lett. 1995, 360, 111-114). The TR-FRET assay can be performed in the presence of varying concentrations of human serum (HS) to determine apparent half maximal inhibitory concentration (IC50) after HS protein binding.
(§6) Inhibition constants were determined using Wang's equation (Wang FEBS Lett. 1995, 360:111-4).
Background: In TR-FRET formats the signal depends on donor and acceptor labels being close together.

The target of the next experiment is Bcl-xL protein (Homo sapiens (Human), UniProt Q07817). Nature of the experiment: TR-FRET binding assay, Bcl-xL. The conditions noted are these: F-Bak peptide probe. As to the method:
as §3
A human Bcl-xL encoding sequence was cloned into a pET41A vector. The protein was expressed with E. coli. BL21(DE3)-T1R strain in OETB autoinduction medium at 30° C. for 25 hours. The cell pellets were resuspended in lysis buffer (50 mM Tris, 140 mM NaCl, 1 mM DTT, 10% Glycerol, 0.1% Triton X-100, pH 7.5) and lysed with Microfluidizer. The Bcl-xL protein in clarified cell-lysate was purified with GST affinity chromatography. The eluate was dialyzed in the storage buffer (1×PBS, 10% Glycerol, 2 mM DTT, 1 mM Sodium Azide, pH 7.4) and stored at −80° C.
as §4, §5, §6

Chain of Bcl-xL protein (Q07817 other isoform, or with tags, fused parts or gaps): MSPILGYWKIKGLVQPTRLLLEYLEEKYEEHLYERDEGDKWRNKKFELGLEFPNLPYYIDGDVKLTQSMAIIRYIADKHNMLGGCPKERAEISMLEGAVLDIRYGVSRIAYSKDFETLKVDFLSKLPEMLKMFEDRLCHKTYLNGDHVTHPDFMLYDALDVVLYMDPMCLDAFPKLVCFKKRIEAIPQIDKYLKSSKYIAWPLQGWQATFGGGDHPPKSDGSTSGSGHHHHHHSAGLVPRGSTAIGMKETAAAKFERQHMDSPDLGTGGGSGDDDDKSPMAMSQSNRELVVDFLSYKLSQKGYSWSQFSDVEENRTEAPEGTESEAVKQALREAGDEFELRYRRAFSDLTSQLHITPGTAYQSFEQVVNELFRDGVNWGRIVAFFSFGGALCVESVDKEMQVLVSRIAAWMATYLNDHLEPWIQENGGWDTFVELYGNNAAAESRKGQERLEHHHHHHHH
Chain of Bcl-2 protein (P10415 other isoform, or with tags, fused parts or gaps): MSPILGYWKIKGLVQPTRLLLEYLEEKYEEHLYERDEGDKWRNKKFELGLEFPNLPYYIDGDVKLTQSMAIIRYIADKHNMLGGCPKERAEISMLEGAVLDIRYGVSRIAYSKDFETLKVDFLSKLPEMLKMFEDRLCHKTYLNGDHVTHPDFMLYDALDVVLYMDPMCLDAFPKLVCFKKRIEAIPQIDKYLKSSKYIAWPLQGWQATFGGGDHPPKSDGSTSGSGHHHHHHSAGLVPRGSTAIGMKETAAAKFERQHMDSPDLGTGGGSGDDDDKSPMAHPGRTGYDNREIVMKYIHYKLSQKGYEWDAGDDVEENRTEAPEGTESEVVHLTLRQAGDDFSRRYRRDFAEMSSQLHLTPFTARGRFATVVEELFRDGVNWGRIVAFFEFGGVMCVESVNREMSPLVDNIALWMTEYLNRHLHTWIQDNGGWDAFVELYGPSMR

`CC1(C)CC(c2ccc(Cl)cc2)=C2CN3CCN(c4ccc(C(=O)NS(=O)(=O)c5ccc(NC[C@H]6COCCO6)c([N+](=O)[O-])c5)c(N5CCCOc6nc7[nH]ccc7cc65)c4)C[C@H]3COCCCO[C@@H]2C1` [Example 3, N-((4-((((S)-1,4-dioxan-2-yl)methyl)amino)-3-nitrophenyl)sulfonyl)-4-((4aS,10aR)-14-(4-chlorophenyl)-12,12-dimethyl-1,2,4a,5,8,9,10a,11,13,15-decahydro-7H,12H-benzo[f]pyrazino[2,1-c][1,8]dioxa[4]azacycloundecin-3(4H)-yl)-2-(3,4-dihydro-2H-pyrrolo[3′,2′:5,6]pyrido[2,3-b][1,4]oxazepin-1(7H)-yl)benzamide]: the values for the EC50 in the experiment on Molt-4 cells and in the experiment on RS4;11 cells were 1410 nM and 1.36 nM, respectively.
On the same counts, the results for `C[C@@H]1CC[C@H](CNc2ccc(S(=O)(=O)NC(=O)c3ccc(N4CCN5CC6=C(c7ccc(Cl)cc7)CC(C)(C)C[C@H]6OCCCOC[C@@H]5C4)cc3N3CCCOc4nc5[nH]ccc5cc43)cc2[N+](=O)[O-])OC1` [Example 21, 4-((4aS,10aR)-14-(4-chlorophenyl)-12,12-dimethyl-1,2,4a,5,8,9,10a,11,13,15-decahydro-7H,12H-benzo[f]pyrazino[2,1-c][1,8]dioxa[4]azacycloundecin-3(4H)-yl)-2-(3,4-dihydro-2H-pyrrolo[3′,2′:5,6]pyrido[2,3-b][1,4]oxazepin-1(7H)-yl)-N-((4-((((2R,5R)-5-methyltetrahydro-2H-pyran-2-yl)methyl)amino)-3-nitrophenyl)sulfonyl)benzamide] are 3280 nM and 4.89 nM.
On to `CO[C@H]1CC[C@H](CNc2ccc(S(=O)(=O)NC(=O)c3ccc(N4CCN5CC6=C(c7ccc(Cl)cc7)CC(C)(C)C[C@H]6OCCCOC[C@@H]5C4)cc3N3CCCOc4nc5[nH]ccc5cc43)cc2Cl)OC1` [Example 34, N-((3-chloro-4-((((2R,5S)-5-methoxytetrahydro-2H-pyran-2-yl)methyl)amino)phenyl)sulfonyl)-4-((4aS,10aR)-14-(4-chlorophenyl)-12,12-dimethyl-1,2,4a,5,8,9,10a,11,13,15-decahydro-7H,12H-benzo[f]pyrazino[2,1-c][1,8]dioxa[4]azacycloundecin-3(4H)-yl)-2-(3,4-dihydro-2H-pyrrolo[3′,2′:5,6]pyrido[2,3-b][1,4]oxazepin-1(7H)-yl)benzamide], for which the half-maximal effective concentration (EC50) in the experiment on Molt-4 cells is greater than 10000 nM. Further, the figures for the Ki at Bcl-2 protein and at Bcl-xL protein were 0.667 nM and 446 nM, respectively.
Taken in the same sequence, the figures for `CO[C@H]1CC[C@H](COc2ccc(S(=O)(=O)NC(=O)c3ccc(N4CCN5CC6=C(c7ccc(Cl)cc7)CC(C)(C)C[C@H]6OCCCOC[C@@H]5C4)cc3N3CCCOc4nc5[nH]ccc5cc43)cc2Cl)OC1` [Example 40, N-((3-chloro-4-(((2R,5S)-5-methoxytetrahydro-2H-pyran-2-yl)methoxy)phenyl)sulfonyl)-4-((4aS,10aR)-14-(4-chlorophenyl)-12,12-dimethyl-1,2,4a,5,8,9,10a,11,13,15-decahydro-7H,12H-benzo[f]pyrazino[2,1-c][1,8]dioxa[4]azacycloundecin-3(4H)-yl)-2-(3,4-dihydro-2H-pyrrolo[3′,2′:5,6]pyrido[2,3-b][1,4]oxazepin-1(7H)-yl)benzamide] were greater than 10000 nM, 0.349 nM and 199 nM.
`CC1(C)CC(c2ccc(Cl)cc2)=C2CN3CCN(c4ccc(C(=O)NS(=O)(=O)c5ccc(OC[C@H]6CC[C@](C)(O)CC6)c([N+](=O)[O-])c5)c(N5CCCOc6nc7[nH]ccc7cc65)c4)C[C@H]3COCCCO[C@@H]2C1` [Example 44, 4-((4aS,10aR)-14-(4-chlorophenyl)-12,12-dimethyl-1,2,4a,5,8,9,10a,11,13,15-decahydro-7H,12H-benzo[f]pyrazino[2,1-c][1,8]dioxa[4]azacycloundecin-3(4H)-yl)-2-(3,4-dihydro-2H-pyrrolo[3′,2′:5,6]pyrido[2,3-b][1,4]oxazepin-1(7H)-yl)-N-((4-(((1r,4r)-4-hydroxy-4-methylcyclohexyl)methoxy)-3-nitrophenyl)sulfonyl)benzamide]: the results for the EC50 in the experiment with Molt-4 cells and in the experiment on RS4;11 cells were 2270 nM and 4.39 nM, respectively.
